One assay has as its target β2AR (Homo sapiens, UniProt P07550). Kind of assay: Fixed-cell ELISA, PKA site. It is filed as cell-based. Particulars: 10 μM H89 pre-incubated 30 min and during 5 min with 1 μM isoprenaline.
Assay [1] has as its target T1, TRHR (Rattus norvegicus, UniProt Q01717).
T1 sequence (Q01717 1-412): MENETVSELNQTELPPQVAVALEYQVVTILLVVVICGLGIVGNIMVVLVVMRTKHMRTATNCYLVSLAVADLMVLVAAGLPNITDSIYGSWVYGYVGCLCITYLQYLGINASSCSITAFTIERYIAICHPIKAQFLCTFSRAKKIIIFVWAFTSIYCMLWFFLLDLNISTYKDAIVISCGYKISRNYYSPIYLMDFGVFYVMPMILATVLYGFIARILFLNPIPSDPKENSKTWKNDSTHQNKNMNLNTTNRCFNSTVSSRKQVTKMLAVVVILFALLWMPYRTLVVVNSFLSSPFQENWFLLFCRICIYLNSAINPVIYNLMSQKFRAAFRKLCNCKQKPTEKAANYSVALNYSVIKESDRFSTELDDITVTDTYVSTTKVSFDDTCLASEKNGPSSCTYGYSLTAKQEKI
As to the kind of experiment: Receptor internalization assay. It is filed as cell-based. The conditions noted are these: 100 nM TRH, after 1 h, HEK-293.

The target in assay [2] is T1, TRHR. As to the kind of experiment: Fixed-cell ELISA, GRK site phosphorylation/dephosphorylation of TRHR tail. It is filed as cell-based. The conditions noted are these: EC50 (GRK site phosphorylation). Background: An ELISA detects its analyte on a solid surface through an enzyme-linked reagent.
For assay [3], the target named is T2, TRHR–β2AR chimaera (Rattus norvegicus, UniProt Q01717).
T2 sequence (Q01717 1-337): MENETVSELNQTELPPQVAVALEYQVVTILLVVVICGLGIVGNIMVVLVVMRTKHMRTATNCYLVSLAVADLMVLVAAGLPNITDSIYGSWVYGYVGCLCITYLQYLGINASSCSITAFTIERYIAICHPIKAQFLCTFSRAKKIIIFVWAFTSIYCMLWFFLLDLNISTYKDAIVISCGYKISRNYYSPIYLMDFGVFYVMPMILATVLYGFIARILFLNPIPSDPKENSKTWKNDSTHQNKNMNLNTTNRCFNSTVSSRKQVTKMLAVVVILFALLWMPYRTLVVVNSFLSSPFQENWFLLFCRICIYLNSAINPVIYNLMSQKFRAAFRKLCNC
As to the kind of experiment: Receptor internalization assay. It is filed as cell-based, rat TRHR / human β2AR. The conditions noted are these: 100 nM TRH, after 1 h, HEK-293.

The test system of a further assay is β2AR–TRHR chimaera. As to the kind of experiment: Receptor internalization assay. The conditions noted are these: stable HEK-293. It is filed as cell-based, human β2AR / rat TRHR.
Assay [4] addresses T2, TRHR–β2AR chimaera. As to the kind of experiment: [methyl-3H]TRH binding to live cells. Also on record: species or system rat TRHR / human β2AR. Particulars: HEK-293, 90 min at 37°C, Scatchard analysis.

Sequence of β2AR (P07550 whole entry): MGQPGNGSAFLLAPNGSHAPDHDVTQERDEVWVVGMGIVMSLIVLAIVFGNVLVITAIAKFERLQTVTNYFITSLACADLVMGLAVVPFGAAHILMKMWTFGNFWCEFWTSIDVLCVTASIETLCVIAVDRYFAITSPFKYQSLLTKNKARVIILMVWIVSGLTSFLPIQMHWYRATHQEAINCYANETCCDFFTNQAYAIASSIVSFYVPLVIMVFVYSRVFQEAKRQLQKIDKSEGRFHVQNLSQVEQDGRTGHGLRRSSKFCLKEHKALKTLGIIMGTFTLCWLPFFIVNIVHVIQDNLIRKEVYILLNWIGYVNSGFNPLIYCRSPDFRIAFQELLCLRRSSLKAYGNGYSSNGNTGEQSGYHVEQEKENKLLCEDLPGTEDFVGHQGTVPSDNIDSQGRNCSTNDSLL

In the case of `O=S(=O)(NCCNC/C=C/c1ccc(Br)cc1)c1cccc2cnccc12` [H89], the “Inhibition of isoprenaline-stimulated PKA site phosphorylation” value at β2AR is given as 80%.
By EC50 is commonly meant the concentration that produces a half-maximal response. A lower EC50 goes with a more potent agent. As for `NC(=O)[C@@H]1CCCN1C(=O)[C@H](Cc1cnc[nH]1)NC(=O)[C@@H]1CCC(=O)N1` [TRH, thyrotropin-releasing hormone], the Receptor internalized is on record as 60% on TRHR [1] and 40% on TRHR–β2AR chimaera [3]. The compound also registered a concentration giving a half-maximal response (EC50) at TRHR [2] of 8 nM.
As to `CC(C)NCC(O)c1ccc(O)c(O)c1` (stereo not drawn) [isoprenaline], the “More internalization at 1 μM than at 1 nM isoprenaline” value with β2AR–TRHR chimaera is recorded as 2 fold.
Regarding [methyl-3H]TRH, the “Affinity for [methyl-3H]TRH compared with wild-type TRHR” value at TRHR–β2AR chimaera [4] is recorded as “reduced affinity”.
